From paper PMC9916658, “Design and Synthesis of New Quinazolin-4-one Derivatives with Negative mGlu7 Receptor Modulation Activity and Antipsychotic-Like Properties” (International Journal of Molecular Sciences, 2023)

Key:
Assay in all cases: CYP inhibition assay, recombinant enzyme, fluorescence
Assay type in all cases: in vitro ADME
CYP2B6 = molecular target: T1, CYP2B6 (Homo sapiens, UniProt P20813); settings: test concentrations 1.1, 3.3 and 10 μM; read-out: Cytochrome P450 2B6 IC50
T1 construct: purchased BD Biosciences
T1 sequence (P20813 1-491): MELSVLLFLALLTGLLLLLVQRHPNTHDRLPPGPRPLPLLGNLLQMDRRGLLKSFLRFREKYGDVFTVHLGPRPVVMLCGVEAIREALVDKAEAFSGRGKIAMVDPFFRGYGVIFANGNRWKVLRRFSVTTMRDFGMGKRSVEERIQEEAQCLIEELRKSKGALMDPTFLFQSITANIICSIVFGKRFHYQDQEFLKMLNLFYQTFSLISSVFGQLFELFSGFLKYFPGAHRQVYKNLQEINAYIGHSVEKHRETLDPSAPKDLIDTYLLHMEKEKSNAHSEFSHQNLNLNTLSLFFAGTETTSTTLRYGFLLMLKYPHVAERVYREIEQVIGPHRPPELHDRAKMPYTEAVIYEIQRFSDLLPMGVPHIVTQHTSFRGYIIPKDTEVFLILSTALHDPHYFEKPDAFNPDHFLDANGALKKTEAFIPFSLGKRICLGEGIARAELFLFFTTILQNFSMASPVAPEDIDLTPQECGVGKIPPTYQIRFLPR
Description: (§1) CYP inhibition was performed with the recombinant enzymes CYP1A2, CYP2B6, CYP2C9, CYP2C19, CYP2D6, and CYP3A4 obtained from BD Biosciences. Compounds for CYP inhibition testing were prepared as 10 mM stock solutions in DMSO. Isoform-specific substrates were incubated at 37 °C individually with P450 enzymes (Table 5) and a range of test compound concentrations (1.1, 3.3 and 10 μM) in duplicate. Each isoform was tested separately with one reference compound, a known positive control inhibitor. During preincubation, the 96-well black plates were scanned with a fluorescence plate reader to eliminate false results originating from the autofluorescence of the test compounds. At the end of the incubation, product formation was monitored with fluorescence detection. A decrease in the formation of the metabolite compared to the “no inhibition” control samples was used to calculate the IC50 value.

CYP2D6 = molecular target: T2, CYP2D6 (Homo sapiens, UniProt P10635); settings: test concentrations 1.1, 3.3 and 10 μM; read-out: Cytochrome P450 2D6 IC50
T2 construct: purchased BD Biosciences
Description: as §1

CYP1A2 = molecular target: T3, CYP1A2 (Homo sapiens, UniProt P05177); settings: test concentrations 1.1, 3.3 and 10 μM; read-out: Cytochrome P450 1A2 IC50
T3 construct: purchased BD Biosciences
T3 sequence (P05177 1-516): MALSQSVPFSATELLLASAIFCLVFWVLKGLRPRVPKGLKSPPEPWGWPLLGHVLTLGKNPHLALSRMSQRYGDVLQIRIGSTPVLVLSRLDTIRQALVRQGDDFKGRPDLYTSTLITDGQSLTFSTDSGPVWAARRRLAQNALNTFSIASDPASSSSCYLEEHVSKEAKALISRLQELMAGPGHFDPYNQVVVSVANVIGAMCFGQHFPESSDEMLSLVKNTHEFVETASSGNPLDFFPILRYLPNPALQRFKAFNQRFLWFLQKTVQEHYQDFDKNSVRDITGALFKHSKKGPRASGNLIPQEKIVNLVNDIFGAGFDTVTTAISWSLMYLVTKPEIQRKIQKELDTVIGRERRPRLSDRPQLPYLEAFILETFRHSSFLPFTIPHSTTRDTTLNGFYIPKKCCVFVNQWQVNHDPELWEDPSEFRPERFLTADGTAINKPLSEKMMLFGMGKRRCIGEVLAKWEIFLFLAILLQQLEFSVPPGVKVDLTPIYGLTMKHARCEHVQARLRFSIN
Description: as §1

CYP2C19 = molecular target: T4, CYP2C19 (Homo sapiens, UniProt P33261); settings: test concentrations 1.1, 3.3 and 10 μM; read-out: Cytochrome P450 2C19 IC50
T4 construct: purchased BD Biosciences
Description: as §1

CYP3A4 = molecular target: T5, CYP3A4 (Homo sapiens, UniProt P08684); settings: test concentrations 1.1, 3.3 and 10 μM; read-out: Cytochrome P450 3A4 IC50
T5 construct: purchased BD Biosciences
Description: CYP inhibition was performed with the recombinant enzymes CYP1A2, CYP2B6, CYP2C9, CYP2C19, CYP2D6, and CYP3A4 obtained from BD Biosciences. Compounds for CYP inhibition testing were prepared as 10 mM stock solutions in DMSO. Isoform-specific substrates were incubated at 37 °C individually with P450 enzymes (Table 5) and a range of test compound concentrations (1.1, 3.3 and 10 μM) in duplicate. Each isoform was tested separately with one reference compound, a known positive control inhibitor. […] At the end of the incubation, product formation was monitored with fluorescence detection.

T5 sequence (P08684 whole entry): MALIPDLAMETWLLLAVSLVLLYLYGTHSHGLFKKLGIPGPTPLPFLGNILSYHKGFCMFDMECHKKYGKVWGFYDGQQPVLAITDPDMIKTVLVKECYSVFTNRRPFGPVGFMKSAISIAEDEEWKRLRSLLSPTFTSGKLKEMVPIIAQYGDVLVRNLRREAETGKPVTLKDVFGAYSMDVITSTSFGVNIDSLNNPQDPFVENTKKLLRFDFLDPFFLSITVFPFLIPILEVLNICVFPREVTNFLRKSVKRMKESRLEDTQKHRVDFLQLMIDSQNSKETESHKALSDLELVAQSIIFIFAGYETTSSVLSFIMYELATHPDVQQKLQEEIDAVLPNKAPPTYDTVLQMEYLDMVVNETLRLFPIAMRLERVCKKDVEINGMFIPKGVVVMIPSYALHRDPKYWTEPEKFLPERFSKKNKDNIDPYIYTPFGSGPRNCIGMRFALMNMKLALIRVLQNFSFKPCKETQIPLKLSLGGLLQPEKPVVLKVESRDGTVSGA
T2 sequence (P10635 whole entry): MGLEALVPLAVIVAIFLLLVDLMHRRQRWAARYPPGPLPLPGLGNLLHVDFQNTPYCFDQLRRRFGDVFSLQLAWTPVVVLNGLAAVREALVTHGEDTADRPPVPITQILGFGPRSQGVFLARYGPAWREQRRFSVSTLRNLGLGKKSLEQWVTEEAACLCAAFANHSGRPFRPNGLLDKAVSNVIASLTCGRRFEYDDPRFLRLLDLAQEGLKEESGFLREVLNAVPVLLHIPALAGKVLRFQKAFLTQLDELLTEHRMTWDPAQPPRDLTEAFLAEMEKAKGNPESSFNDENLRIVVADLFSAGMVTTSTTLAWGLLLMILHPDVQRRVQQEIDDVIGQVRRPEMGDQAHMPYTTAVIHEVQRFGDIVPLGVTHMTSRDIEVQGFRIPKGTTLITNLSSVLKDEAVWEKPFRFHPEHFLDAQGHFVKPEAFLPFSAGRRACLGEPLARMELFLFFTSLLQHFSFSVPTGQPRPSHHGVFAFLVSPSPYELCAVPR
T4 sequence (P33261 whole entry): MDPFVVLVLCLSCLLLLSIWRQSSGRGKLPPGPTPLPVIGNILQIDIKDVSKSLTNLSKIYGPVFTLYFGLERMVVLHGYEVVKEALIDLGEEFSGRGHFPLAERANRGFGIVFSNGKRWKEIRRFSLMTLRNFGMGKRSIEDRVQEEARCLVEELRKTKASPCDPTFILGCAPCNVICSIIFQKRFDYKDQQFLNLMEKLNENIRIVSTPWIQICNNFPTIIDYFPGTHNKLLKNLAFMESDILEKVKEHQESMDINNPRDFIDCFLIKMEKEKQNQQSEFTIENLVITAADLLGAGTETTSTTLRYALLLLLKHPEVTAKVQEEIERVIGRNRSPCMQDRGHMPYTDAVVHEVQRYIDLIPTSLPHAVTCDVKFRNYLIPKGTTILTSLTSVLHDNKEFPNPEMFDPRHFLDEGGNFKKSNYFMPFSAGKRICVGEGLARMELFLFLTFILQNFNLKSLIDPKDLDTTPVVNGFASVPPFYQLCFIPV

| Compound | IC50 (CYP2B6) [µM] | IC50 (CYP2D6) [µM] | IC50 (CYP1A2) [µM] | IC50 (CYP2C19) [µM] | IC50 (CYP3A4) [µM] |
| --- | --- | --- | --- | --- | --- |
| Cn1c(-c2ccccc2Cl)nc2ccc(-c3ccccc3)cc2c1=O [ALX-065, 2-(2-chlorophenyl)-3-methyl-6-phenylquinazolin-4(3H)-one] | > 10 | > 10 | 1.1 to 3.3 | 1.1 to 3.3 | > 10 |
| COc1cccc(-c2ccc3nc(-c4ccccc4Cl)n(C)c(=O)c3c2)c1OC [ALX-171, 2-(2-chlorophenyl)-6-(2,3-dimethoxyphenyl)-3-methylquinazolin-4(3H)-one] | > 10 | > 10 | 3.3 to 10 | 3.3 to 10 | 3.3 to 10 |
